According to patent publication US20140323577A1, “METHODS FOR REDUCING THE RISK OF CONVERSION TO CLINICALLY DEFINITE MULTIPLE SCLEROSIS” (Sanofi-Aventis U.S. LLC, priority 2013, published 2014):

Experiments:
Type in all cases: in vivo, human
[1] = test system: patients with a first clinical episode suggestive of multiple sclerosis; assay: Time to conversion to CDMS, randomized double-blind placebo-controlled study; conditions: for Hazard ratio (95% CI), time to conversion to CDMS: Cox proportional hazard model; for Number of patients who were censored (time to conversion to CDMS) / Number of patients with conversion to CDMS: number (%); for Kaplan-Meier estimates of probability of conversion to CDMS (95% CI): ITT
From the text: (§1) Methodology: This was a multi-center, multinational, randomized, placebo-controlled, double blind, parallel group (3 groups) study stratified by center and baseline monofocal/multifocal status.
(§2) Diagnosis and criteria for inclusion: Patients with a first acute or subacute, well-defined neurological event consistent with demyelination with onset of MS symptoms occurring within 90 days of randomization; and abnormal MRI with 2 or more T2 lesions at least 3 mm in diameter that are characteristic of MS.
Efficacy/pharmacodynamics: The primary efficacy variable was time to CDMS defined by the occurrence of a relapse: new neurological abnormality separated by at least 30 days from onset of a preceding clinical event, present for at least 24 hours and occurring in the absence of fever or known infection.
(§3) Statistical methods: Analysis population: Efficacy analyses were based on the intent-to-treat (ITT) population consisting of all randomized patients, as randomized, who had at least 1 day exposure to study medication.
Efficacy analysis: The primary analysis of time to conversion to CDMS was performed using Cox regression model with treatment, region, and baseline monofocal/multifocal status as independent variables. The assessment of efficacy was based on (pairwise) hazard rate ratio comparisons of each active dose of teriflunomide versus placebo. Two-sided 95% confidence intervals of the hazard rates ratio were provided for each teriflunomide treatment effect estimate versus placebo. The log-rank test was provided as supportive.
(§4) Multiplicity procedure: Step down approach was used for multiplicity adjustment for 2 doses of teriflunomide and the primary and key secondary endpoints. Treatment comparison of teriflunomide 14 mg vs. placebo in time to conversion to CDMS was tested at 5% significance level. If significant, comparison of teriflunomide 7 mg vs. placebo in time to conversion to CDMS was tested at 5% significance level. If significant, comparison of teriflunomide 14 mg vs. placebo for the key secondary endpoint was tested at 5% significance level. If significant, comparison of teriflunomide 7 mg vs. placebo for the key secondary endpoint was tested at 5% significance level.

[2] = test system: patients with a first clinical episode suggestive of multiple sclerosis; assay: Time to conversion to DMS (dissemination of MRI lesions in time or a relapse), same study; conditions: for Hazard ratio (95% CI), time to conversion to DMS: Cox proportional hazard model; for Number of patients with conversion to DMS / Number of patients who were censored (time to conversion to DMS) / Number of patients with conversion to DMS: Dissemination of MRI lesion in time / Number of patients with conversion to DMS: Relapse: number (%); for Number of patients who were censored (time to conversion to DMS) / Number of patients with conversion to DMS: Dissemination of MRI lesion in time / Number of patients with conversion to DMS: Relapse / Kaplan-Meier estimates of probability of conversion to DMS (95% CI): ITT
From the text: as §1, §2, §3
(§5) The key secondary endpoint was analyzed using the same Cox regression model. ARR was analyzed using a Poisson regression model with robust error variance including the number of confirmed relapses with their onset between randomization date and last dose date as the response variable, treatment, region, and baseline monofocal/multifocal status as covariates, and log transformed standardized exposure duration as an offset variable.
as §4

[3] = test system: patients with a first clinical episode suggestive of multiple sclerosis; assay: Confirmed MS relapse / annualized relapse rate (ARR), same study; conditions: for Unadjusted annualized relapses rate / Total number of relapses / Number of patients with ≧1 relapses: No / Number of relapses: 0 (patients) / Number of relapses: 1 (patients) / Number of relapses: 2 (patients) / Number of relapses: >=3 (patients): ITT; for Number of patients with ≧1 relapses: Yes / Number of patients with ≧1 relapses: No / Number of relapses: 0 (patients) / Number of relapses: 1 (patients) / Number of relapses: 2 (patients) / Number of relapses: >=3 (patients): number (%); for Risk reduction of on-treatment adjusted ARR relative to placebo: non-statistically significant
From the text: as §1, §2, §3, §5

[4] = test system: patients with a first clinical episode suggestive of multiple sclerosis; assay: Study treatment discontinuation and tolerability, same study
Method: as §1
454 (73.9%) patients completed 108 weeks of study treatment or entered the extension: 71.6% in the placebo group, 73.2% in the teriflunomide 7 mg group, and 75.5% in the teriflunomide 14 mg group. […] The mean (±SD) age was 32.1 (±8.5) years and the study population was primarily Caucasian (96.1%).

[5] = 14 mg once daily, ITT (N = 214)
[6] = 7 mg once daily, randomized population (N = 205)
[7] = 14 mg once daily, randomized population (N = 216)

For C/C(O)=C(\C#N)C(=O)Nc1ccc(C(F)(F)F)cc1 [teriflunomide, (Z)-2-cyano-3-hydroxy-but-2-enoic acid-(4′-trifluoromethylphenyl)-amide], the “Hazard ratio (95% CI), time to conversion to CDMS” value ([1]; 7 mg once daily vs placebo, P-value 0.0271, log-rank P 0.0422) was 0.628, the “Number of patients who were censored (time to conversion to CDMS)” value ([1]; 7 mg once daily, ITT (N = 203)) was 164 (80.8%) and the “Number of patients with conversion to CDMS” value ([1]; 7 mg once daily, ITT population (N = 203)) was 39 (19.2%). For the same compound, the “Kaplan-Meier estimates of probability of conversion to CDMS (95% CI)” value (“Kaplan-Meier estimates … to CDMS (95% CI)” for short) ([1]; 7 mg once daily, at 24 weeks) was 0.087, the “Kaplan-Meier estimates … to CDMS (95% CI)” value ([1]; 7 mg once daily, at 48 weeks) was 0.142 and the “Estimated cumulative rate of conversion to CDMS” value ([1]; 7 mg once daily, at 108 weeks) was 27.6%. The “Kaplan-Meier estimates … to CDMS (95% CI)” value ([1]; 7 mg once daily, at 108 weeks) was 0.276, the “Reduction of the risk of conversion to CDMS compared to placebo” value ([1]; 7 mg once daily, p=0.0271) was 37.2% and the “Hazard ratio (95% CI), time to conversion to CDMS” value ([1]; 14 mg once daily vs placebo, P-value 0.0087, log-rank P 0.0133) was 0.574. For the same compound, the “Number of patients who were censored (time to conversion to CDMS)” value [1, 5] was 176 (82.2%), the “Number of patients with conversion to CDMS” value ([1]; 14 mg once daily, ITT population (N = 214)) was 38 (17.8%) and the “Kaplan-Meier estimates … to CDMS (95% CI)” value ([1]; 14 mg once daily, at 24 weeks) was 0.090. The “Kaplan-Meier estimates … to CDMS (95% CI)” value ([1]; 14 mg once daily, at 48 weeks) was 0.137, the “Estimated cumulative rate of conversion to CDMS” value ([1]; 14 mg once daily, at 108 weeks) was 24.0% and the “Kaplan-Meier estimates … to CDMS (95% CI)” value ([1]; 14 mg once daily, at 108 weeks) was 0.240. The “Reduction of the risk of conversion to CDMS compared to placebo” value ([1]; 14 mg once daily, p=0.0087) was 42.6%, the “Hazard ratio (95% CI), time to conversion to DMS” value ([2]; 7 mg once daily vs placebo, P-value 0.0020, log-rank P 0.0028) was 0.686 and the “Number of patients with conversion to DMS” value ([2]; 7 mg once daily, ITT (N = 203)) was 125 (61.6%). For the same compound, the “Number of patients who were censored (time to conversion to DMS)” value ([2]; 7 mg once daily) was 78 (38.4%), the “Number of patients with conversion to DMS: Dissemination of MRI lesion in time” value ([2]; 7 mg once daily) was 110 (54.2%) and the “Number of patients with conversion to DMS: Relapse” value ([2]; 7 mg once daily) was 15 (7.4%). The “Kaplan-Meier estimates of probability of conversion to DMS (95% CI)” value (“Kaplan-Meier estimates … to DMS (95% CI)” below) ([2]; 7 mg once daily, at 24 weeks) was 0.457, the “Kaplan-Meier estimates … to DMS (95% CI)” value ([2]; 7 mg once daily, at 48 weeks) was 0.573 and the “Estimated cumulative rate of conversion to DMS (dissemination of MRI lesions in time or confirmed relapse)” value ([2]; 7 mg once daily, at 108 weeks) was 73.3%. The “Kaplan-Meier estimates … to DMS (95% CI)” value ([2]; 7 mg once daily, at 108 weeks) was 0.733, the “Reduction of the risk of conversion to DMS (dissemination of MRI lesions in time or a relapse) compared to placebo” value ([2]; 7 mg once daily, p=0.0020) was 31.4% and the “Hazard ratio (95% CI), time to conversion to DMS” value ([2]; 14 mg once daily vs placebo, P-value 0.0003, log-rank P 0.0002) was 0.651. For the same compound, the “Number of patients with conversion to DMS” value [2, 5] was 136 (63.6%), the “Number of patients who were censored (time to conversion to DMS)” value ([2]; 14 mg once daily) was 78 (36.4%) and the “Number of patients with conversion to DMS: Dissemination of MRI lesion in time” value ([2]; 14 mg once daily) was 111 (51.9%). The “Number of patients with conversion to DMS: Relapse” value ([2]; 14 mg once daily) was 25 (11.7%), the “Kaplan-Meier estimates … to DMS (95% CI)” value ([2]; 14 mg once daily, at 24 weeks) was 0.460 and the “Kaplan-Meier estimates … to DMS (95% CI)” value ([2]; 14 mg once daily, at 48 weeks) was 0.578. The “Estimated cumulative rate of conversion to DMS (dissemination of MRI lesions in time or confirmed relapse)” value ([2]; 14 mg once daily, at 108 weeks) was 71.5%, the “Kaplan-Meier estimates … to DMS (95% CI)” value ([2]; 14 mg once daily, at 108 weeks) was 0.715 and the “Reduction of the risk of conversion to DMS (dissemination of MRI lesions in time or a relapse) compared to placebo” value ([2]; 14 mg once daily, p=0.0003) was 34.9%. For the same compound, the “Adjusted annualized relapse rate, Relative risk (95% CI)” value ([3]; 7 mg once daily vs placebo, P-value 0.0541) was 0.669, the “Adjusted annualized relapse rate, Risk difference (95% CI)” value ([3]; 7 mg once daily vs placebo, P-value 0.0576) was −0.094 and the “Unadjusted annualized relapses rate” value ([3]; 7 mg once daily) was 0.209. For the same compound, the “Number of patients with ≧1 relapses: Yes” value ([3]; 7 mg once daily, ITT (N = 203)) was 42 (20.7%), the “Total number of relapses” value ([3]; 7 mg once daily, 258.5 patient-years followed) was 54 and the “Number of patients with ≧1 relapses: No” value ([3]; 7 mg once daily) was 161 (79.3%). The “Number of relapses: 0 (patients)” value ([3]; 7 mg once daily) was 161 (79.3%), the “Number of relapses: 1 (patients)” value ([3]; 7 mg once daily) was 33 (16.3%) and the “Number of relapses: 2 (patients)” value ([3]; 7 mg once daily) was 7 (3.4%). The “Number of relapses: >=3 (patients)” value ([3]; 7 mg once daily) was 2 (1.0%), the “Risk reduction of on-treatment adjusted ARR relative to placebo” value ([3]; 7 mg once daily, p=0.0541) was 33.1% and the “Adjusted annualized relapse rate, Relative risk (95% CI)” value ([3]; 14 mg once daily vs placebo, P-value 0.0579) was 0.681. The “Adjusted annualized relapse rate, Risk difference (95% CI)” value ([3]; 14 mg once daily vs placebo, P-value 0.0628) was −0.091, the “Unadjusted annualized relapses rate” value ([3]; 14 mg once daily) was 0.208 and the “Number of patients with ≧1 relapses: Yes” value [3, 5] was 45 (21.0%). For the same compound, the “Total number of relapses” value ([3]; 14 mg once daily, 288.9 patient-years followed) was 60, the “Number of patients with ≧1 relapses: No” value ([3]; 14 mg once daily) was 169 (79.0%) and the “Number of relapses: 0 (patients)” value ([3]; 14 mg once daily) was 169 (79.0%). For the same compound, the “Number of relapses: 1 (patients)” value ([3]; 14 mg once daily) was 33 (15.4%), the “Number of relapses: 2 (patients)” value ([3]; 14 mg once daily) was 10 (4.7%) and the “Number of relapses: >=3 (patients)” value ([3]; 14 mg once daily) was 2 (0.9%). The “Risk reduction of on-treatment adjusted ARR relative to placebo” value ([3]; 14 mg once daily, p=0.0579) was 31.9%, the “Study treatment discontinuation: Adverse event (number of patients)” value [4, 6] was 25 and the “Study treatment discontinuation: Death (number of patients)” value [4, 6] was 0. The “Study treatment discontinuation: Lack of efficacy” value [4, 6] was “(2.9%)”, the “Study treatment discontinuation: Lack of efficacy (number of patients)” value [4, 6] was 6 and the “Study treatment discontinuation: Progressive Disease” value [4, 6] was “(0.5%)”. The “Study treatment discontinuation: Progressive Disease (number of patients)” value [4, 6] was 1, the “Study treatment discontinuation: Adverse event (number of patients)” value [4, 7] was 18 and the “Study treatment discontinuation: Death (number of patients)” value [4, 7] was 0. For the same compound, the “Study treatment discontinuation: Lack of efficacy” value [4, 7] was “(5.6%)”, the “Study treatment discontinuation: Lack of efficacy (number of patients)” value [4, 7] was 12 and the “Study treatment discontinuation: Progressive Disease (number of patients)” value [4, 7] was 0. The “Tolerability / safety profile” value ([4]; both doses (7 mg and 14 mg once daily)) was “well tolerated with a manageable safety profile”.
